The nature of data set [1]: Electrochemical oxidation / cyclic voltammetry. It is filed as physicochemical. The following applies: phosphate buffer pH 7.0, vs Ag/AgCl reference. As for the experimental part: Compound 3a has a maximum in the UV-vis spectrum at 292 nm, and 4a has a maximum at 325 nm with a less intense peak at 525 nm (FIG. 2). […] This isosbestic point was also conserved in the photocatalytic and enzymatic (FIG. 2) oxidations of 3a described below, and the spectroscopic changes at 292 and 325 nm were routinely used for monitoring reaction progress.
All electrochemistry was performed using a CHI-620D potentiostat/galvanostat. Cyclic voltammetry was performed using a standard three-electrode configuration. CV scans were recorded for quiescent solutions using a platinum disk working electrode (2.0 mm diameter CH Instruments) and a platinum wire auxiliary electrode. All potentials were measured against a Ag/AgCl reference electrode (CH Instruments, 1 M KCl). CV and DPV experiments were performed in a nitrogen saturated 0.1 M potassium phosphate (KH2PO4) buffered solution at pH 7.0. The concentration of the analyte was 1.0 mM for all experiments.

Data set [2] concerns the target T1, horseradish peroxidase (HRP) (Armoracia rusticana, UniProt P00433).
T1 sequence (P00433 31-338): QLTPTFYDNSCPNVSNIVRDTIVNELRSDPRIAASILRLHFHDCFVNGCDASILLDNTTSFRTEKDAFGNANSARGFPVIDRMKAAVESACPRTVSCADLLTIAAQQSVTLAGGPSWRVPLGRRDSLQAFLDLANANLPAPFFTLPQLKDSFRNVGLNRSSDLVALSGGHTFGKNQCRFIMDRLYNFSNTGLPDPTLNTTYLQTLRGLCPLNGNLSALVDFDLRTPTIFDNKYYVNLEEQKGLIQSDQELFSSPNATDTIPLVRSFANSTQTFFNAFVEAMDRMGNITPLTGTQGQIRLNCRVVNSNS
Kind of data set: Horseradish peroxidase (HRP) catalyzed oxidation of DHTz to tetrazine. The class given is biochemical. To be noted: HRP 15 nM; for Rate of HRP Oxidation of 3a: first 10 seconds. How it is done:
Upon addition of horseradish peroxidase (15 nM) the UV-vis spectrum was monitored every 10 seconds. With 50% conversion after 100 seconds, complete conversion of 3a to 4a is observed after 600 seconds, as evidenced by the decrease in the absorption at 292 nm and increase at 325 nm with an isosbestic point at 303 nm. Similar spectral changes are observed when 3a is electrochemically oxidized to 4a in aqueous solution, or when the oxidation of 3a to 4a is photocatalyzed by methylene blue. […] Methylene blue was considered a particularly attractive sensitizer due to its clinical relevance, low molecular weight, low toxicity, high solubility, and an absorption spectrum (λmax 665 nm) that extends to the near IR. Further, methylene blue has previously been explored for applications in photodynamic therapy based on oxidation of indole-3-acetic acid. Rose bengal (λmax 550 nm), used in a range of biomedical applications, was also identified as an excellent sensitizer. […] Methylene blue (4 μM) also catalyzed the conversion of 3a to 4a in the presence of ambient light, with 47% conversion noted after 2 h. […] The mechanism of photooxidation more likely involves electron transfer and is the subject of ongoing study.
As a complement to these photocatalyzed reactions, the inventors observed that HRP can efficiently catalyze the oxidation of 3a in the dark at low enzyme concentration (15 nM) (FIG. 4). While HRP typically requires H2O2 as the terminal oxidant, the addition of HRP to a peroxide-free solution of 3a (30 μM) in PBS led to the rapid formation of 4a (FIG. 4, panel B). […] Neither cytochrome c nor hemoglobin were effective catalysts of DHTz oxidation, with only slow conversion of 3a to 4a even with heme concentrations that were nearly 3 orders of magnitude higher than that used with HRP.
Solutions (1 mL) containing 3a (30 μm) in PBS buffer were prepared in a cuvette from stock solutions. Oxidation of 3a to 4a was monitored by recording absorbance at 325 nm every 10 seconds while either hydrogen peroxide (2 mM), HRP (15 nM) or both were added (FIG. 4, panel B). For the superoxide dismutase experiment, HRP (15 nM) was added followed by SOD (770 nM) 40 seconds later (FIG. 4, panel C). For the kinetics experiments, solutions (1 mL) containing 3a in PBS buffer with EDTA (2 mM) were prepared in the following concentrations of 3a: 9, 17, 34, 50, 83, 150 and 200 μM. The oxidation rate was determined by observing the conversion of 3a to 4a in the first 10 seconds after mixing in HRP (15 nM) and subtracting the background oxidation prior to the addition of HRP.

On to `O=C(O)CCC(=O)Nc1ccc(C2=NNC(c3ccccn3)=NN2)nc1` [3a, 4-oxo-4-((6-(6-(pyridin-2-yl)-1,4-dihydro-1,2,4,5-tetrazin-3-yl)pyridin-3-yl)amino)butanoic Acid], for which, in data set [1], the “voltammogram peak (electrochemical oxidation)” value is 0.02 V. For the same compound, the “time to complete conversion of 3a to 4a” value in data set [2] turned out to be 600 s. Also, in data set [2] (after 100 seconds), the “conversion of 3a to 4a” value is given as 50%. Also, the “Rate of HRP Oxidation of 3a” value amounted to 5.6e-08 M/s in data set [2] ([3a] 17 μM); 8.9e-08 M/s in data set [2] ([3a] 34 μM); 1.2e-07 M/s in data set [2] ([3a] 50 μM); 2.1e-07 M/s in data set [2] ([3a] 83 μM); 2.5e-07 M/s in data set [2] ([3a] 150 μM); 2.6e-07 M/s in data set [2] ([3a] 200 μM).

For the origin of these results see patent publication US11485987B2, “Methods for inducing bioorthogonal reactivity” (University of Delaware, priority 2015, dated 2022).
